Measured values taken from US6747050B1, “Isoxazoline derivative and a process for the preparation thereof” (LG Chem Investment Ltd., priority 1999, dated 2004).
Values belong to the compound of their own block, whether it stands above or below them.

Columns and labels:
caspase-1 = biological target: T1, caspase-1 (Homo sapiens, UniProt P29466); assay: Recombinant caspase enzyme inhibition, fluorogenic substrate Ac-YVAD-AMC; format: biochemical; details: Irreversible Inhibitors; read-out: Kobs/[I] for caspase-1
T1 construct: made in house; host or cells: transformed bacterium (pET vector)
T1 sequence (P29466 120-297 limits assumed): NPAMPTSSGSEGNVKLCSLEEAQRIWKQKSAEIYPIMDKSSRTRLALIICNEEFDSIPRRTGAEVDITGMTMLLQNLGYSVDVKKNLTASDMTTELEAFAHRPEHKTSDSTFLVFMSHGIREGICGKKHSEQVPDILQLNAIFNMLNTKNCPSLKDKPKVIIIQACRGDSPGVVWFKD
T1 sequence (P29466 317-404 limits assumed): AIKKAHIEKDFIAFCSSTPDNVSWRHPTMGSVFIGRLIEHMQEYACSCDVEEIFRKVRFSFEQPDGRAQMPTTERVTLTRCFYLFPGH
Method: (§1) In the present experiment recombinant caspases were purified from a transformed bacterium after human caspase genes were cloned into the expression vector pET, and then used in the experiment (Thornberry, N. A. et al. Nature, 1992, 356, 768. Thornberry, N. A. Methods in Enzymology, 1994, 615.).
(§2) Enzymatic activity was measured by a known procedure (Walker N. P. C. et al., Cell 1994, 78, 343). Briefly, 10 ng of recombinant protein was mixed with 50 mM Tris(pH 7.0), 1 mM DTT, 0.5 mM EDTA, 10% Glycerol buffer containing 1˜100 μM of enzyme substrate, Ac-YVAD-AMC or Ac-DEVD-AMC and then the changes by isolated AMC at 37° C. were recorded. The inhibitory activity for caspases was calculated from the early enzyme reaction rate by measuring the changes with fluorescence excited at […] and emitted at 460 nm (Range; Ki<100 nM).

caspase-3 = biological target: T2, caspase-3 (Homo sapiens, UniProt P42574); assay: Recombinant caspase enzyme inhibition, fluorogenic substrate Ac-DEVD-AMC; format: biochemical; details: Irreversible Inhibitors; read-out: Kobs/[I] for caspase-3
T2 construct: made in house; host or cells: transformed bacterium (pET vector)
T2 sequence (P42574 29-175 limits assumed): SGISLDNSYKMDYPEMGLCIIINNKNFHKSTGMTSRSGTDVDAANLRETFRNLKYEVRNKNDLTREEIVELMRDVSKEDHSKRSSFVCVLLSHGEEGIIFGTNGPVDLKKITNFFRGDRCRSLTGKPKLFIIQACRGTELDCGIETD
T2 sequence (P42574 176-277 limits assumed): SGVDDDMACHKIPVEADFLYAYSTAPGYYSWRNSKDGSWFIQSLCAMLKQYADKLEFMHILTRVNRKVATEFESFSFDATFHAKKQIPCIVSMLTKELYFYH
Method: as §1, §2

[1] = test system: W138 cells (human embryonal lung fibroblast); assay: Protection from IFNγ and anti-Fas antibody-induced apoptosis (XTT); format: cell-based; details: IFNγ 200 units/ml + anti-Fas antibody 40 ng/well; for cell viability (control without Fas antibody = 100%): 50 μM, 50 µM; for viability at 0.4 µM / viability at 2 µM / viability at 10 µM / viability at 50 µM: Homo sapiens, read-out: cell viability (control without Fas antibody = 100%); for viability at 0.4 µM: W138, 0.4 μM; for viability at 2 µM: W138, 2 μM; for viability at 10 µM: W138, 10 μM; for viability at 50 µM: W138, 50 μM
Method: W138 cells (human embryonal lung fibroblast) were grown in a medium containing DMEM-10% FBS within, 10 cm diameter dishes until reaching at confluency. The cells were seeded into a 24-well plate at day 1 and incubated overnight while the volume of medium was maintained to 400 μl. Cells were treated with 200 units/ml of IFNγ at day 2 and incubated over 12 hrs or more. At day 3, each 100 μl of test compound was added to the cells after diluting the 10 mM stock compound in DMSO to final concentrations of 50, 10, 2, and 0.4 μM, respectively. The cells were incubated for 2 hrs in order for allowing the compound to enter into the cells and then treated with 40 ng/well of anti-Fas antibody(apoptosis was induced 2 hrs after antibody was treated and the incubation was continued overnight). The control was not treated with Fas antibody. […] After coloring, 100-200 μl of the supernatant was transferred to a 96-well plate and the absorbance at 490 nm was read with ELISA plate reader. For the blank, XTT solution was added to the well continued the medium only. Plotting was determined by comparing with the control group (100% when Fas antibody was not treated).

[2] = test system: caspase-3-like activity (Ac-DEVD-pNA); assay: Caspase-3-like activity in TNFα/ActD-treated primary rat hepatocytes; format: cell-based; details: 100 μM, 8 hrs
Method: Primary rat hepatocytes were isolated and purified from male Sprague-Dawley rats using a collagenase digestion method. The hepatocytes were purified over 30% Percoll gradient by centrifugation at 1,000×g for 10 min. at 4° C. […] The cells were plated on collagen-coated tissue culture plates at a density of 2×10^5 cells/well in 12-well plates for cell viability analysis or 5×10^6 cells/100 mm dish for enzyme assays. After 18 hrs preculture, the cells were treated with 2,000 units/ml TNFα and 0.2 μg/ml Actinomycin (ActD). Caspase activity and cell viability was determined by colorimetry using a caspase substrate Ac-DEVD-pNA and crystal violet staining method at 8 hrs and 12 hrs, respectively.

C57BL/6 female mice [3] = assay: anti-Fas antibody (Jo2)-induced liver apoptosis and lethality in mice; format: in vivo
Method: (§3) […] C57BL/6 female mice (18-20 g) were injected i.p. with compound 33MP dissolved in vehicle which consists of olive oil and 10% DMSO, or vehicle alone, at 1 hr before i.v. injection with 10 μg of Anti-Fas antibody (Jo2). Following 4 hrs of i.v. injection with Jo2 antibody, animals were placed under inhaled isoflurane anesthesia for blood collection and liver isolation. Mice were also i.p. injected with 0.2 μg/20 g of TNFα and 12 mg/20 g of D-galactosamine (TNFα/GalN) and compound 33MP or its salt form (Compound 33MP-Na). 8 hrs later, blood and liver tissues were isolated from anesthetized animals. The liver tissues were snap-frozen and stored at −80° C. until use. Plasma was isolated from blood by centrifugation at 12,000×g for 10 min at 4° C. and stored at −80° C. In some experiments for animal mortality, mice were i.p. injected with TNFα/GalN and caspase inhibitor was injected 1 hr before, simultaneously, 2 hrs, or 4 hrs after TNFα/GalN injection
(§4) Whole tissues (0.5 g) were homogenated in ice-cold lysis buffer (5 mM Tris, 20 mM EDTA, 0.5% Triton-X 100, pH8.0). […] The supernatant was obtained and extracted twice with a mixture of phenol and chloroform. One-tenth volume of 3 M sodium acetate was added to the solution, and DNA was precipitated by adding an equal volume of isopropanol. After storing at −20° C. overnight, a DNA pellet was obtained by centrifugation at 12,000×g for 15 min. at 4° C. and washed twice with 75% ethanol. The pellet was dried and resuspended in 100 μl of 20 mM Tris-HCl, pH 8.0. After digesting RNA with DNase-free RNase (0.1 mg/ml, at 37° C. for 1 hr, samples […] were electrophoresed through a 1.2% agarose gel in 450 mM Tris borate+EDTA (TBE), pH 8.0 buffer. DNA was photographed under visualized with UV light.
(§5) Liver tissues were homogenated in 10 mM HEPES buffer containing protease inhibitors (5 μg/ml aprotinin, 5 μg/ml pepstatin A, 10 μg/ml leupeptin, and 0.5 mM PMSF) and lysed by three feeze/thaw cycles. […] Protein concentration was determined with BCA protein assay reagent (pierce, Rockford, Ill.). Cytosol containing 200 μg protein was combined in 96-well plate with […] of synthetic substrate Ac-DEVD-pNA in 150 μl of 100 mM HEPES, pH 7.4, containing the protease inhibitors, and the reaction was conducted for 1 hr at 37° C. […] Plasma level of aspartate aminotransferase (AST) was analyzed by spectrophotometry using each enzyme assay kit (Sigma).

C57BL/6 female mice [4] = assay: TNFα-induced liver toxicity and lethality in mice; format: in vivo; details: TNFα/ActD
Method: as §3, with “Mice were also i.p. injected with 0.2 μg/20 g of TNFα and 12 mg/20 g of D-galactosamine (TNFα/GalN) and compound 33MP or its salt form (Compound 33MP-Na).” left out
as §4, §5

SMILES: CC(=O)[C@H](CC(=O)O)NC(=O)C1(COc2ccccc2)CC([C@@H](NC(=O)c2ccc3ccccc3n2)C(C)C)=NO1 (mixture of isomers) [Compound 22, (3S)-3-{3-[(1S)-1-(Quinoline-2-yl-carbonylamino)-2-methyl-propyl]-5-phenoxymethyl-4,5-dihydro-isoxazole-5-carbonylamino}-4-keto-pentanoic Acid]
cell viability (control without Fas antibody = 100%) [1]: 78.29%
viability at 0.4 µM [1]: 14.4%
viability at 2 µM [1]: 18.3%
viability at 10 µM [1]: 35.4%
viability at 50 µM [1]: 78%

SMILES: CC(C)[C@H](NC(=O)c1ccc2ccccc2c1)C1=NOC(Cc2ccccc2)(C(=O)N[C@@H](CC(=O)O)C(=O)COC(=O)c2c(Cl)cccc2Cl)C1 (stereo partly drawn) [Compound 28, (3S)-3-{3-[(1S)-1-(Naphthalene-2-carbonylamino)-2-methyl-propyl]-5-phenylmethyl-4,5-dihydro-isoxazole-5-carbonylamino}-4-keto-5-(2,6-dichlorobenzoyloxy)-pentanoic Acid]
cell viability (control without Fas antibody = 100%) [1]: 90.39%
viability at 0.4 µM [1]: 14.7%
viability at 2 µM [1]: 17.3%
viability at 10 µM [1]: 82.4%
viability at 50 µM [1]: 90%

SMILES: CC(C)[C@H](NC(=O)c1cccc2ccccc12)C1=NOC(Cc2ccccc2)(C(=O)N[C@@H](CC(=O)O)C(=O)COC(=O)c2c(Cl)cccc2Cl)C1 (stereo partly drawn) [Compound 33MP, (3S)-3-{3-[2-Methyl-(1S)-1-(1-naphthalenecarbonylamino)-propyl]-5-phenylmethyl-4,5-dihydro-isoxazole-5-carbonylamino}-4-keto-5-(2,6-dichlorobenzoyloxy)-pentanoic Acid]
liver apoptosis determined by DNA fragmentation (FIG. 9A) (C57BL/6 female mice [3]; 0.4 mg/20 g, 1 mg/20 g i.p. 1 hr before antibody, 4 hrs): suppressed the liver apoptosis in a dose-dependent manner
release of liver enzyme AST (FIG. 9B) (C57BL/6 female mice [3]; 4 hrs after anti-Fas antibody): significantly suppressed
caspase-3-like activity in liver tissues (FIG. 10) (C57BL/6 female mice [3]; anti-Fas antibody increased activity about 25-folds): abrogated
inhibition of mortality compared with Z-VAD-fmk (C57BL/6 female mice [3]; mouse, in vivo): more effective
suppression of AST release compared with Z-VAD-fmk (C57BL/6 female mice [3]; mouse, in vivo): higher
suppression of liver apoptosis compared with Z-VAD-fmk (C57BL/6 female mice [3]; mouse, in vivo): higher
reduction of mortality (FIG. 11) (C57BL/6 female mice [3]; within 24 hrs, antibody alone 85% died): about 30%
DNA fragmentation in liver tissues (FIG. 12A) (C57BL/6 female mice [4]): significantly reduced
caspase-3-like activity in liver (FIG. 13) (C57BL/6 female mice [4]): suppressed
inhibitory effect on caspase activity compared with Z-VAD-fmk (C57BL/6 female mice [4]): higher
protective effect compared with Z-VAD-fmk (C57BL/6 female mice [4]): higher
release of AST (FIG. 12B) (C57BL/6 female mice [4]): suppressed
caspase-3-like activity increased by TNFα/ActD (FIG. 15A) [2]: not different

The next lines start with the values.

kinact/KI (caspase-1): 616000 M⁻¹ s⁻¹
kinact/KI (caspase-3): 2390 M⁻¹ s⁻¹
SMILES: CC(C)[C@H](NC(=O)c1cccc2ccccc12)C1=NOC(C)(C(=O)N[C@@H](CC(=O)O)C(=O)COC(=O)c2c(Cl)cccc2Cl)C1 (stereo partly drawn) [Compound 68, (3S)-3-{3-[2-Methyl-(1S)-1-(naphthalene-1-carbonylamino)-propyl]-5-methyl-4,5-dihydro-isoxazole-5-carbonylamino}-4-keto-5-(2,6-dichlorobenzoyloxy)-pentanoic Acid]

kinact/KI (caspase-1): 707000 M⁻¹ s⁻¹
kinact/KI (caspase-3): 1230 M⁻¹ s⁻¹
SMILES: CC(C)[C@H](NC(=O)c1cc2ccccc2[nH]1)C1=NOC(Cc2ccccc2)(C(=O)N[C@@H](CC(=O)O)C(=O)COC(=O)c2c(Cl)cccc2Cl)C1 (stereo partly drawn) [Compound 64, (3S)-3-{3-[2-Methyl-(1S)-1-(indole-2-carbonylamino)-propyl]-5-phenylmethyl-4,5-dihydro-isoxazole-5-carbonylamino}-4-keto-5-(2,6-dichlorobenzoyloxy)-pentanoic Acid]

caspase-3-like activity increased by TNFα/ActD (FIG. 15A) [2]: not different
SMILES: CC(=O)N[C@@H](CC(=O)O)C(=O)N[C@@H](CCC(=O)O)C(=O)N[C@H](C(=O)N[C@H](C=O)CC(=O)O)C(C)C [Ac-DEVD-CHO]

kinact/KI (caspase-1): 357000 M⁻¹ s⁻¹
kinact/KI (caspase-3): 1560 M⁻¹ s⁻¹
SMILES: CC(C)[C@H](NC(=O)c1c[nH]c2ccccc12)C1=NOC(Cc2ccccc2)(C(=O)N[C@@H](CC(=O)O)C(=O)COC(=O)c2c(Cl)cccc2Cl)C1 (stereo partly drawn) [Compound 66, (3S)-3-{3-[2-Methyl-(1S)-1-(indole-3-carbonylamino)-propyl]-5-phenylmethyl-4,5-dihydro-isoxazole-5-carbonylamino}-4-keto-5-(2,6-dichlorobenzoyloxy)-pentanoic Acid]
